The text below walks through data of patent US7238716B2, “Alkanoic acid derivatives process for their production and use thereof” (Takeda Pharmaceuticals Company Limited, priority 2000, dated 2007).

The subject of one data set is KKA^y mice. The data set is described as follows: Total cholesterol lowering action and plasma anti-arteriosclerosis index enhancing action in mice (Test Example 2). It is filed as in vivo. Particulars: Mus musculus, po, 96 h, 0.005% in powdery diet, four days; for change in vivo at 0.005 %: percent increase of [(HDL cholesterol/total cholesterol)×100] vs non-administration group; for inhibition in vivo at 0.005 %: percent reduction of plasma total cholesterol level vs non-administration group. An excerpt: Test compounds were mixed in a powdery diet (CE-2, Japan Clea) the concentration of 0.01% (compounds of Examples 7, 26, 29 and 32) or 0.005% (compounds of Examples 1, 11, 15, 18, 24, 36, 37, 41, 48, 50, 51, 52, 58, 62, 79, 88, 91, 92, 93, 97, 107, 110, 129 and 130), and freely given to KKA^y mice (11 to 12 weeks old, 5 mice per group), a model of type-2 diabetes mellitus, for four days. During this period, water was given freely. Blood was sampled from orbital venous plexus and components were analyzed using the plasma separated from the blood. Total cholesterol levels were determined by using L type Wako Cholesterol (Wako Pure Chemical Industries, Ltd). Precipitation reagent for HDL cholesterol (Wako Pure Chemical Industries, Ltd.) was added to a part of the plasma to precipitate non-HDL lipoprotein, and cholesterol (HDL cholesterol) in the resulting supernatant was determined. The plasma anti-arteriosclerosis index [(HDL cholesterol/total cholesterol)×100] was calculated by using these cholesterol levels.
In the Table, “Total cholesterol lowering action (%)” represents the percent reduction (%) of total cholesterol level in the test compound administration group, when the total cholesterol level in the test compound non-administration group is taken as 100%. “Plasma anti-arteriosclerosis index-enhancing action (%)” represents the percent increase (%) of plasma anti-arteriosclerosis index in the test compound administration group, when the plasma anti-arteriosclerosis index in the test compound non-administration group is taken as 100%.

With `Cc1ccc(CC(=O)O)c(OCc2ccc(OCc3nc(-c4ccccc4)oc3C)cc2)n1` [Example 110, 2-[6-methyl-2-[4-[(5-methyl-2-phenyl-4-oxazolyl)methoxy]benzyloxy]-3-pyridyl]acetic acid], the melting point (usually the temperature of the solid-liquid transition) fell in the range of 138 to 139 °C. Besides, in the data set with KKA^y mice, the change in vivo at 0.005 % turned out to be 24% and the inhibition in vivo – broadly, the relative decrease from the control value, in per cent – at 0.005 % was 21%.

Turning to `Cc1oc(-c2ccccc2)nc1COc1ccc(COc2cccnc2CC(=O)O)cc1` [Example 37, 2-[3-[4-[(5-methyl-2-phenyl-4-oxazolyl)methoxy]benzyloxy]-2-pyridyl]acetic acid], the melting point was 115 to 116 °C (dec.). Moreover, in the data set with KKA^y mice, the change in vivo at 0.005 % is 19% and the inhibition in vivo at 0.005 % was determined as 15%.

Compound `Cc1oc(-c2ccccc2)nc1COc1ccc(COc2ccccc2CC(=O)O)cn1` [Example 41, 2-[2-[[6-[(5-methyl-2-phenyl-4-oxazolyl)methoxy]-3-pyridyl]methoxy]phenyl]acetic acid] registered a melting point of 123 to 125 °C. In addition, in the data set with KKA^y mice, the change in vivo at 0.005 % stood at 28% and the inhibition in vivo at 0.005 % turned out to be 25%.

The compound `COc1ccc(OCc2ccc(OCc3nc(-c4ccccc4)oc3C)cc2)c(CC(=O)O)c1` [Example 24, 2-[5-methoxy-2-[4-[(5-methyl-2-phenyl-4-oxazolyl)methoxy]benzyloxy]phenyl]acetic acid] displayed a melting point of 134 to 136 °C. In addition, in the data set on KKA^y mice, the change in vivo at 0.005 % came to 17% and the inhibition in vivo at 0.005 % is 10%.
